Test results published in US20050034187A1, “Modified tet-inducible system for regulation of gene expression in plants” (priority 2000, published 2005).

Test system: tet-inducible luciferase cassettes with (OCS)3MAS/nTR
Assay: Leaf disk induction assay, luciferase
Type: cell-based, tobacco
Conditions: for maximum magnitude of induction (luciferase): FIGS. 14 and 15; for highest induction in some lines (luciferase) / average induction of the reporter (luciferase): doxycycline 5 mg/l
Experimental: FIG. 9—Doxycycline-Mediated Induction of Expression of Luciferase from (OCS)3triplexmin Promoter in Plants is Stronger than TripleX. This experiment was performed in order to test the performance of OCS elements-modified TripleX promoter on the whole plant level. Transgenic tobacco plants carrying (OCS)3MAS/nTR, NPTII, and either of (OCS)3TripleXmin/LUC or TripleX/LUC cassettes were tested in leaf disk induction assays: 5-10 mm leaf disks were excised from plants and put into six- or twelve-well plates with liquid MS medium and with or without Doxy 5 mg/l at 5 mg/l. Luciferase assays were performed with the tissues 5 days later. Each bar represents one sample; numbers above the bars represent magnitude of induction.
FIG. 10—Doxycycline-Mediated Induction of Expression of Luci erase from (OCS)3triplexmin Promoter in Plants is Stronger than TripleX. […] 5-10 mm leaf disks and pieces of roots were excised from plants and put into six- or twelve-well plates with liquid MS medium and with or without Doxy 5 mg/l at 5 mg/l. Luciferase assays were performed with the tissues 5 days later. Each bar represents an average of three samples; numbers above the bars represent magnitude of induction.
FIG. 13—Doxycycline-Mediated Induction of Expression of Luciferase in Inducible Cassettes With or Without One or More MAR Elements. This experiment was performed in order to test the effect of placing inducible luciferase gene between one or more MAR elements. Tobacco plants carrying TripleX/LUC cassette placed between one or more MAR elements, (OCS)3MAS/nTR and NPTII genes (pACAG073 and pACAG081) as well as the reference cassette without one or more MAR elements (pACAG085) were used as donors of 5-10 mm leaf disks which were cultivated in six- or twelve-well plates with liquid MS medium with or without doxycycline 5 mg/l for five days. Samples were assayed for luciferase activity. Each bar represents one sample; numbers above the bars represent magnitude of induction.
FIG. 14—Doxycycline-Mediated Induction of Luciferase in Leaves Carrying Inducible Cassettes With or Without One or More MAR Elements. This experiment was performed in order to test the effect of placing inducible luciferase gene between one or more MAR elements. […] 5-10 mm leaf disks and pieces of roots were excised from plants and put into six- or twelve-well plates with liquid MS medium and with or without Doxy 5 mg/l at 5 mg/l. Luciferase assays were performed with the tissues 5 days later. Each bar represents an average of three samples; numbers above the bars represent magnitude of induction.
Evaluation of tet inducible system in plant tissues. 5-10 mm leaf disks were excised from plants and put into six- or twelve-well plates with liquid MS medium and with or without a tet analog at 5 mg/l. When transgenic plants carried cassettes for induction of herbicide resistance, the medium was supplemented with PURSUIT® at concentration of 1 μM or higher. These plates were cultivated in dark on shaker at 90 rpm for 5 days (three weeks for analysis of induction of herbicide resistance) and then used in assays or evaluated visually. Another test was designed for evaluation of inducible herbicide resistance. In this test leaf disks were placed on MS agar supplemented with. 1 mg/l of BAP and PURSUIT® at concentration of 1 μM or higher either alone or with a tet analog at 5 mg/l. Three weeks later the induction of regeneration from these disks was evaluated.

C[C@H]1c2cccc(O)c2C(=O)C2=C(O)[C@]3(O)C(=O)C(C(N)=O)=C(O)[C@@H](N(C)C)[C@@H]3[C@@H](O)[C@@H]21 [doxycycline]
maximum magnitude of induction (luciferase) (cassettes carrying at least one MAR element, Doxy 5 mg/l): 50 fold
maximum magnitude of induction (luciferase) (cassettes without MAR element, Doxy 5 mg/l): 80 fold
maximum induction (luciferase) (pACAG085 (TripleX/LUC), Doxy 5 mg/l, leaf disks, FIG. 10): 83 fold
highest induction in some lines (luciferase) (pACAG113 and pACAG085 plants, FIG. 9): 100 fold
average induction of the reporter (luciferase) (pACAG113 and pACAG085 plants, leaf disks, FIG. 9): 30 to 40 fold
magnitude of induction for several lines (luciferase) (pACAG113 cassette ((OCS)3TripleXmin/LUC), Doxy 5 mg/l, leaf disks, FIG. 10): higher than 100 fold
average induction of the reporter (luciferase) (the other three cassettes with or without MAR, FIG. 13): 30 to 40 fold
highest induction in some lines (luciferase) (the other three cassettes, FIG. 13): 100 fold
